We go through 4 molecules from article PMC6413153, “Design, Synthesis, and Use of Novel Photoaffinity Probes in Measuring the Serum Concentration of Glycogen Phosphorylase” (Molecules, 2019).

Series [1] addresses T1, rabbit muscle glycogen phosphorylase a (RMGPa) (Oryctolagus cuniculus, UniProt P00489).
T1 sequence (P00489 2-843 limits assumed): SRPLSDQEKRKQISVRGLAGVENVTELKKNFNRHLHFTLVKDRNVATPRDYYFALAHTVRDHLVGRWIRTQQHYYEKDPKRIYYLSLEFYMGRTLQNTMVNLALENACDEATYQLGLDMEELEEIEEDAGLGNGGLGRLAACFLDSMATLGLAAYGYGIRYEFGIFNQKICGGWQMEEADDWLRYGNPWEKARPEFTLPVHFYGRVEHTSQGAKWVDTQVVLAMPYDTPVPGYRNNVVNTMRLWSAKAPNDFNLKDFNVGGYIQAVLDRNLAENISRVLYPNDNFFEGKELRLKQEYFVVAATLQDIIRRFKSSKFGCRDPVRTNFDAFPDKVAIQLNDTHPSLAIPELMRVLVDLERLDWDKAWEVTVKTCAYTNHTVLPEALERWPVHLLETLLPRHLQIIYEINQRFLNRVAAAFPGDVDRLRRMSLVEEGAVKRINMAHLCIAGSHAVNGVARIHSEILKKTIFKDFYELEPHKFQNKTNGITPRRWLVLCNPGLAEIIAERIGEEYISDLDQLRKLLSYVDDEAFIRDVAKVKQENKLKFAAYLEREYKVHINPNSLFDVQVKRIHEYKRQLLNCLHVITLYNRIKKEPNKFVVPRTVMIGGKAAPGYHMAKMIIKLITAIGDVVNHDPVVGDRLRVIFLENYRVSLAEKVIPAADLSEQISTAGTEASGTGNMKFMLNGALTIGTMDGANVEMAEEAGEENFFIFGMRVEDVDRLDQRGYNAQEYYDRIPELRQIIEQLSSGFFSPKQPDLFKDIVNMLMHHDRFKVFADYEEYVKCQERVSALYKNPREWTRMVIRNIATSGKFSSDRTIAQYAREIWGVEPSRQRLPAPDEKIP
Put plainly: Enzyme inhibition assay against rabbit muscle glycogen phosphorylase a (phosphate release from glucose-1-phosphate). It is filed as biochemical. The conditions noted are these: mean ± S.D. of three determinations; NI means no inhibition. As to the method:
To understand the validity of the synthetic probes, the synthesized probes 1–3 were evaluated in an enzyme inhibition assay against rabbit muscle glycogen phosphorylase a (RMGPa). As described previously, the activity of RMGPa was measured through detecting the release of phosphate from glucose-1-phosphate in the direction of glycogen synthesis, based on the published method.
The inhibitory activity of the test compounds against RMGPa was monitored using a microplate reader (BIO-RAD, Bio-Rad Laboratories, Hercules, CA, USA), based on the published method. In brief, RMGPa activity was measured in the direction of glycogen synthesis by the release of phosphate from glucose-1-phosphate. Each test compound was dissolved in DMSO and diluted at different concentrations for IC50 determination. The enzyme was added to 100 μL of buffer containing 50 mM Hepes (pH = 7.2), 100 mM KCl, 2.5 mM MgCl2, 0.5 mM glucose-1-phosphate, 1 mg/mL glycogen, and the test compound in 96-well microplates (Costar, Corning Incorporated, Corning, NY, USA). After the addition of 150 μL of 1 M HCl containing 10 mg/mL ammonium molybdate and 0.38 mg/mL malachite green, reactions were run at 22 °C for 25 min, and then the phosphate absorbance was measured at 655 nm. The IC50 values were estimated by fitting the inhibition data to a dose-dependent curve using a logistic derivative equation.

Series [2] deals with serum proteomes prepared from rats with acute myocardial infarction. Put plainly: Photoaffinity labeling of serum proteomes, gel-based fluorescence imaging. The class given is binding, rat. The settings on record: UV light 30 min. As to the method:
Based on the results of the potency in the enzyme assay, probe 1 was selected and used throughout photolabeling studies (Figure 3). The serum proteomes prepared from rats with acute myocardial infarction were incubated with probe 1 at concentrations of […], and 300, 100, and 30 nM, respectively. The mixture was exposed to UV light for 30 min, and then was imaged using the Tanon-6100 Chemiluminescent Imaging system.
An attempt to semi-quantitatively analyze the serum-free GP level after an acute myocardial infarction was explored. Serum blanks were added in increasing quantities of RMGPa (0, 12.5, 25, 50, and 100 ng/mL at a final concentration) in the presence of an excess of probe 1 (10 μM). In the same way, probe 1 was added to the serum in an acute myocardial infarction model in a rat. […]
Blood samples prepared from rats with acute myocardial infarction were drawn from the abdominal aorta in rats after coronary ligation using a 23-gauge needle. […] The protein concentration of the suspension was measured according to the Bradford method. […] The band densities were calculated with Quantity One software 4.6.2 (Bio-Rad Laboratories, Inc., Hercules, CA, USA). […] The data were recorded on an LTQ-Orbitrap Fusion mass spectrometer (ThermoFisher Scientific Inc., Waltham, MA, USA) coupled to an Easy-nLC 1000 LC System (Thermo Fischer Scientic). […]

What is called IC50 is the concentration needed to halve the response being measured. The term melting point denotes the temperature of the solid-liquid transition. Consider `CN(C)c1cccc2c(S(=O)(=O)NCCCC[C@H](NC(=O)c3ccc(C(=O)c4ccccc4)cc3)C(=O)OCc3cn(CCOCCOCCOCCOC4CCN(C(=O)[C@H](Cc5ccc(F)cc5)NC(=O)c5cc6cc(Cl)ccc6[nH]5)CC4)nn3)cccc12` [Compound 1, N-[(S)-1-(4-{2-[2-(2-{2-[4-({[(S)-2-(4-Benzoylbenzamido)-6-(dansylamide)hexanoyl]oxy}methyl)-1H-1,2,3-triazol-1-yl]ethoxy}ethoxy)ethoxy]ethoxy}piperidin-1-yl)-3-(4-fluorophenyl)-1-oxopropan-2-yl]-5-chloro-1H-indole-2-carboxamide], for which the melting point fell in the range of 151 to 153 °C. This molecule also showed an IC50 in series [1] of 13.2 ± 5.87 µM. Besides, the “Labelling of protein bands with MW of about 90–100 kDa in semi-quantitative analysis” value in series [2] (10 μM probe, rat AMI serum and serum blanks with added RMGPa 0–100 ng/mL) is “efficiently labeled”. Moreover, the “Labelling of protein band with MW of about 90–100 kDa (consistent with MW of GP)” value in series [2] (probe at 10, 3, and 1 mM, and 300, 100, and 30 nM, 2.0 mg/mL proteomes) is recorded as “clearly labelled”.
The molecule `CN(C)c1cccc2c(S(=O)(=O)NCCCCC(NC(=O)c3ccc(C(=O)c4ccccc4)cc3)C(=O)N[C@@H](CCCCNC(=O)CCCC[C@@H]3SC[C@H]4NC(=O)N[C@@H]34)C(=O)OCc3cn(CCOCCOCCOCCOC4CCN(C(=O)[C@H](Cc5ccc(F)cc5)NC(=O)c5cc6cc(Cl)ccc6[nH]5)CC4)nn3)cccc12` (stereo partly drawn) [Compound 2, N-[(S)-1-(4-{2-[2-(2-{2-[4-({[(S)-2-[(S)-2-(4-Benzoylbenzamido)-6-(dansylamide)hexanamido]-6-(5-{(3aR,4S,6aS)-2-oxohexahydro-1H-thieno[3,4-d]imidazol-1-yl}pentanamido)hexanoyl]oxy}methyl)-1H-1,2,3-triazol-1-yl]ethoxy}ethoxy)ethoxy]ethoxy}piperidin-1-yl)-3-(4-fluorophenyl)-1-oxopropan-2-yl]-5-chloro-1H-indole-2-carboxamide] had a melting point of 159 to 161 °C. In addition, the “RMGPa IC50” value in series [1] is “no inhibitory activity”.
`[N-]=[N+]=NCC(=O)NCCCC[C@H](NC(=O)c1ccc(C(=O)c2ccccc2)cc1)C(=O)OCc1cn(CCOCCOCCOCCOC2CCN(C(=O)[C@H](Cc3ccc(F)cc3)NC(=O)c3cc4cc(Cl)ccc4[nH]3)CC2)nn1` [Compound 3, N-[(S)-1-(4-{2-[2-(2-{2-[4-({[(S)-2-(4-Benzoylbenzamido)-6-(2-azidoacetamido)hexanoyl]oxy}methyl)-1H-1,2,3-triazol-1-yl]ethoxy}ethoxy)ethoxy]ethoxy}piperidin-1-yl)-3-(4-fluorophenyl)-1-oxopropan-2-yl]-5-chloro-1H-indole-2-carboxamide]: the melting point was 113 to 115 °C.
`O=C(N[C@@H](Cc1ccc(F)cc1)C(=O)N1CCC(OCCOCCOCCOCCO)CC1)c1cc2cc(Cl)ccc2[nH]1` [Compound 11, N-{(S)-1-[4-(2-{2-[2-(2-Hydroxyethoxy)ethoxy]ethoxy}ethoxy)piperidin-1-yl]-3-(4-fluorophenyl)-1-oxopropan-2-yl}-5-chloro-1H-indole-2-carboxamide]: the melting point is 103 to 105 °C. For the same molecule, the IC50 in series [1] amounted to 0.43 ± 0.16 µM.
